In assay [1] the test system is Candida albicans (ATCC 36232). Nature of the assay: MIC test, antifungal activity. Type of assay: cell-based. The method, then: (§1) Antibacterial and antifungal activities of the peptides were determined by employing MIC test as follows:
(§2) To determine antifungal activity, a test organism Candida albicans (ATCC 36232) was cultured on Sabouraud dextrose agar plate for 24 to 48 hrs, and colonies thus grown were suspended on Sabouraud dextrose medium(Gibco, USA) to have O.D.530 =0.5(3×10^6 cells) and further diluted with 100-fold to have O.D.530 =0.005(3×10^4 cells). 100 μl of Candida albicans culture thus prepared was pipetted on 96-well microplates which had already contained 100 μl of a serially diluted peptide solution.

In assay [2] the test system is Staphylococcus aureus (ATCC 6538). The experiment in a line: MIC test, antibacterial activity. It is filed as cell-based. The method, then: as §1, §2
Antibacterial activity of peptide was determined analogously as above, with an exception that Staphylococcus aureus (ATCC 6538) selected as a test organism was cultured on M-3 medium(Gibco, USA) at 37° C. and cell number was adjusted to 2×10^8 cells before 100-fold dilution.

The mark [3] stands for this setting: Table 3, addition of an amino acid to N-terminal of TED.
Setting [4] is: Table 2, modification of N-terminal residues of TED.
The mark [5] stands for this setting: Table 1, peptide fragments of Tenecin.
[6] abbreviates: Table 4, addition of an amino acid to N-terminal of TEDF.
Where [7] appears, read: Table 8, TEDFK derivatives of group 1.
Setting [8] is: Table 7, comparison with Ketoconazole (Example 3).
Setting [9] is: Table 6, substitution of Cys in TEDFK with Aib.
Where [10] appears, read: Table 9, TEDFK derivatives of group 2.
Setting [11] is: Table 11, enantiomer, retro-inverso, D-amino acid derivatives of M22.

In brackets after ≈: the same amount, converted by molar mass. Non-standard residues stand in square brackets, D forms with d. No end group written: not given here. Aib = CC(C)(N)C(=O)O A value given as a limit tells only on which side of the number the result lay.

The MIC is the least concentration at which growth counts as inhibited. Regarding `CC(=O)N1CCN(c2ccc(OCC3COC(Cn4ccnc4)(c4ccc(Cl)cc4Cl)O3)cc2)CC1` (stereo not drawn) [Ketoconazole, reference compound], the MIC in assay [1] (Candida albicans, ATCC36232, Table 7, comparison with Ketoconazole (Example 3), read-out: MIC against C. albicans) turned out to be 6 µg/mL (≈ 11.3 µM).

As for “AYCNGKRVCVCR--NH2 (AYCNGKRVCVCR-NH2; cysteine pairing not given here) [TEDA]”, in assay [1] (setting [3]), the “MIC C. albicans” value amounted to 10 µg/mL. The “MIC S. aureus” value in assay [2] (setting [3]) turned out to be 10 µg/mL.

Take “CNGKRVCVCR--NH2 (CNGKRVCVCR-NH2; cysteine pairing not given here) [TED15]”: the “MIC against C. albicans” value in assay [1] (setting [4]) was over 500 µg/mL.

On to “DAACAAHHCLFR--NH2 (DAACAAHHCLFR-NH2; cysteine pairing not given here) [TEA]”, for which, in assay [1] (setting [5]), the “MIC C. albicans” value was over 100 µg/mL. Also, the “MIC S. aureus” value in assay [2] (setting [5]) was over 500 µg/mL.

For “DFYCNGKRVCVCR--NH2 (DFYCNGKRVCVCR-NH2; cysteine pairing not given here) [TEDFD]”, the “MIC C. albicans” value in assay [1] (setting [6]) is over 500 µg/mL. For the same molecule, the “MIC S. aureus” value in assay [2] (setting [6]) is over 500 µg/mL.

Consider “DYCNGKRVCVCR--NH2 (DYCNGKRVCVCR-NH2; cysteine pairing not given here) [TEDD]”, for which the “MIC C. albicans” value in assay [1] (setting [3]) was 50 µg/mL. Besides, the “MIC S. aureus” value in assay [2] (setting [3]) is 10 µg/mL.

Regarding “FFYCNGKRVCVCR--NH2 (FFYCNGKRVCVCR-NH2; cysteine pairing not given here) [TEDFF]”, the “MIC C. albicans” value in assay [1] (setting [6]) was found to be 3 µg/mL. Further, in assay [2] (setting [6]), the “MIC S. aureus” value was 5 µg/mL.

“FKYCNGKRVCVCR--NH2 (FKYCNGKRVCVCR-NH2; cysteine pairing not given here) [M3]”: the “MIC C. albicans” value in assay [1] (setting [7]) was found to be 12.5 µg/mL. The “MIC S. aureus” value in assay [2] (setting [7]) came to 12.7 µg/mL.

As for “FPYCNGKRVCVCR--NH2 (FPYCNGKRVCVCR-NH2; cysteine pairing not given here) [TEDFP]”, the “MIC C. albicans” value in assay [1] (setting [6]) is over 500 µg/mL. Besides, the “MIC S. aureus” value in assay [2] (setting [6]) is over 500 µg/mL.

Consider “FYCNGKRVCVCR--NH2 (FYCNGKRVCVCR-NH2; cysteine pairing not given here) [TEDF]”, for which the “MIC C. albicans” value in assay [1] (setting [3]) and in assay [1] (setting [6]) was 10 µg/mL throughout. Further, the “MIC S. aureus” value in assay [2] (setting [3]) and in assay [2] (setting [6]) was 5 µg/mL each time.

For “GKRVCVCR--NH2 (GKRVCVCR-NH2; cysteine pairing not given here) [TED11]”, the “MIC against C. albicans” value in assay [1] (setting [4]) is over 500 µg/mL.

As to “KCNGKRVCVCR--NH2 (KCNGKRVCVCR-NH2; cysteine pairing not given here) [TED18]”, in assay [1] (setting [4]), the “MIC against C. albicans” value is over 500 µg/mL.

Take “KFYCDGKRVCVCR--NH2 (KFYCDGKRVCVCR-NH2; cysteine pairing not given here) [M18]”: the “MIC C. albicans” value in assay [1] (setting [7]) stood at 12.5 µg/mL. Further, the “MIC S. aureus” value in assay [2] (setting [7]) is 12.7 µg/mL.

As to “KFYCKGKRVCVCR--NH2 (KFYCKGKRVCVCR-NH2; cysteine pairing not given here) [TEDFK-7]”, the “MIC against C. albicans” value in assay [1] (Table 5, modification of TEDFK) came out at 3 µg/mL; in assay [1] (setting [8]) it was 3 µg/mL.

On to “KFYCNGKRICICR--NH2 (KFYCNGKRICICR-NH2; cysteine pairing not given here) [M13]”, for which the “MIC C. albicans” value in assay [1] (setting [7]) came out at 6.25 µg/mL. Further, the “MIC S. aureus” value in assay [2] (setting [7]) is 6.35 µg/mL.

With “KFYCNGKRVCVCD--NH2 (KFYCNGKRVCVCD-NH2; cysteine pairing not given here) [TEDFK-11]”, the “MIC against C. albicans” value came out at 5 µg/mL in assay [1] (Table 5, modification of TEDFK) and 6 µg/mL in assay [1] (setting [8]).

Regarding “KFYCNGKRVCVCL--NH2 (KFYCNGKRVCVCL-NH2; cysteine pairing not given here) [TEDFK-10]”, the “MIC against C. albicans” value in assay [1] (Table 5, modification of TEDFK) turned out to be 5 µg/mL; in assay [1] (setting [8]) it was 6 µg/mL.

As for “KFYCNGKRVCVCR--NH2 [TEDFK-8] (KFYCNGKRVCVCR-NH2; cysteine pairing not given here)”, the “MIC against C. albicans” value in assay [1] (Table 5, modification of TEDFK) came to 5 µg/mL; in assay [1] (setting [8]), 6 µg/mL.

As for “KFYCNGKRVCVCR--NH2 [TEDFK] (KFYCNGKRVCVCR-NH2; cysteine pairing not given here)”, the “MIC C. albicans” value in assay [1] (setting [6]) came out at 3 µg/mL; in assay [1] (setting [7]), 6.25 µg/mL; in assay [1] (setting [10]), 6.25 µg/mL; in assay [1] (setting [11]) it was 6.25 µg/mL. Further, the “MIC against C. albicans” value came to 3 µg/mL in assay [1] (Table 5, modification of TEDFK); 3 µg/mL in assay [1] (setting [9]); 6.25 µg/mL in assay [1] (Table 10, TEDFK derivatives of group 3). Further, the “MIC S. aureus” value turned out to be 5 µg/mL in assay [2] (setting [6]), 6.25 µg/mL in assay [2] (setting [7]), 6.25 µg/mL in assay [2] (setting [10]) and 6.25 µg/mL in assay [2] (setting [11]).

With “KFYCNGKRVCVCW--NH2 (KFYCNGKRVCVCW-NH2; cysteine pairing not given here) [M31]”, the “MIC C. albicans” value in assay [1] (setting [7]) was determined as 12.5 µg/mL. The “MIC S. aureus” value in assay [2] (setting [7]) was determined as 12.7 µg/mL.

In the case of “KFYCNGKRVCV[Aib]R-NH2 (cysteine pairing not given here) [TEDFK-3A]”, the figures for the “MIC against C. albicans” value in assay [1] (setting [9]) and in assay [1] (setting [8]) were 20 µg/mL and 12 µg/mL, respectively.

In the case of “KFYCNGKRV[Aib]VCK-NH2 (cysteine pairing not given here) [M25]”, the “MIC C. albicans” value in assay [1] (setting [7]) was found to be 6.25 µg/mL. Moreover, in assay [2] (setting [7]), the “MIC S. aureus” value was found to be 6.35 µg/mL.

The values above are taken from patent publication US5889148A, “Antibiotic peptides” (priority 1995, dated 1999).
